Key:
[1] = tested on: alcohol preferring rats; test: Alcohol Preferring Rats, Study A: Chronic Administration (14 days); format: in vivo, rat; settings: 30 mg/kg once a day
Description: (§1) Adult male selectively-bred alcohol preferring rats were used in this study. The selectively bred alcohol preferring rats are widely used to study the suppressant effects of compounds on voluntary alcohol intake (Faren et al. 2000; Rezvani et al, 1990, 1991, 1992a, 1992b, 1999, 2000, 2002; 2003; Murphy et al, 1988; Overstreet et al., 1992, 1999; Li and McBride, 1995).
(§2) The rats were housed individually under a constant room temperature of 22±1° C. and 12:12 light-dark cycle (7:00-19:00, dark). Animals were fed Agway Prolab Rat/Mouse/Hamster 3000 formula and water ad libitum.
(§3) Alcohol intake was determined using a standard two-bottle choice method (Murphy et al. 1988; McBride et al. 1990; Rezvani et al. 1990, 1991, 1993, 1995, 1997, Rezvani et al., 2007a,b; Rezvani and Grady, 1994). Animals were first given free access to water in a graduated Richter tube for 1 day. Next, they were given access to only a solution of 10% (v/v) ethanol for 3 consecutive days. During this period the animals became accustomed to drinking from Richter tubes and to the taste and pharmacological effects of alcohol. Thereafter, the animals were given free access to both water and a solution of 10% alcohol for 4 consecutive weeks and throughout of the study. The animals continued to have free access to food. Water and alcohol intake were recorded at 6 and 24 hour.
After establishment of a reliable baseline for alcohol, and water intake, the animals were randomly assigned to a treatment regimen. The animals were administered once a day, via gavage, either vehicle (0.5% methylcellulose) or compound of formula (I-A) (at 30 mg/kg) or naltrexone (at 20 mg/kg) for 14 consecutive days. A group of 6-7 animals was used for each treatment. Alcohol and water intake was recorded at 6 hrs and 24 hrs after administration.
The results are presented as a means ±SEM. Alcohol intake (g/kg) was calculated by multiplying the volume of alcohol consumed in ml by 10% and 0.7893 (ethanol density)/body weight in kg. Alcohol preference, expressed as percentage was calculated as (volume of alcohol consumed in ml/total fluid intake in ml)×100 (Rezvani and Grady, 1994; Rezvani et al., 2007a). Statistical differences between drug-treated and control groups was determined by using ANOVA and Tukey Student's t test for multiple comparison.
The results from Study A provide a measure of whether or not the animals develop tolerance to the suppressant effects of the test compound following a chronic treatment. In Tables 5-8 below, the abbreviation “(I-A)” stands for the compound of formula (I-A), the abbreviation “Naltx” stands for naltrexone, and the abbreviation “EtOH” stands for ethanol.

[2] = tested on: alcohol preferring rats; test: Alcohol Preferring Rats, Study B: Post-Deprivation Effect; format: in vivo, rat; settings: 30 mg/kg; for % EtOH / Alcohol: 45 min before re-exposure to alcohol after 72 hours deprivation
Description: as §1, §2, §3
Following Study A, the rats were maintained on alcohol for 15 days without drug. On day 16 post-gavage, rats were put on food and water only for 72 hours. On the next day, 45 min before re-exposure to alcohol, the rats were treated with vehicle (0.5% methylcellulose), naltrexone (at 20 mg/kg) or compound of formula (I-A) (at 30-mg/kg). Alcohol intake was then measured at 1, 3, 6 and 24 hr after exposure.
The results are presented as a means. Alcohol intake (g/kg) was calculated by multiplying the volume of alcohol consumed in ml by 10% and 0.7893 (ethanol density)/body weight in kg. Alcohol preference, expressed as percentage was calculated as (volume of alcohol consumed in ml/total fluid intake in ml)×100 (Rezvani and Grady, 1994; Rezvani et al., 2007a). Statistical differences between drug-treated and control groups was determined by using ANOVA and Tukey Student's t test for multiple comparison.
The results from Study B provide a measure of the effectiveness of the test compound to suppress post-deprivation-induced craving for alcohol.

## Cc1cccc2cccc(CN3CCC4(CC3)C(=O)N(C[C@H](O)CN)CN4c3ccc(F)cc3)c12 [Cmpd (I-A), 3-(3-amino-2-(R)-hydroxy-propyl)-1-(4-fluoro-phenyl)-8-(8-methyl-naphthalen-1-ylmethyl)-1,3,8-triazaspiro[4.5]decan-4-one]
[1]; gavage, Day 1, 6 Hour Intake
  Alcohol Intake: 1.31 g/kg
  Alcohol Preference: 62 % EtOH
[1]; gavage, Day 1, 24 Hour Intake
  Alcohol Intake: 4.04 g/kg
  Alcohol Preference: 72 % EtOH
[1]; gavage, Day 2, 6 Hour Intake
  Alcohol Intake: 1.54 g/kg
  Alcohol Preference: 48 % EtOH
[1]; gavage, Day 2, 24 Hour Intake
  Alcohol Intake: 3.71 g/kg
  Alcohol Preference: 56 % EtOH
[1]; gavage, Day 3, 6 Hour Intake
  Alcohol Intake: 1.71 g/kg
  Alcohol Preference: 53 % EtOH
[1]; gavage, Day 3, 24 Hour Intake
  Alcohol Intake: 3.39 g/kg
  Alcohol Preference: 54 % EtOH
[1]; gavage, Day 4, 6 Hour Intake
  Alcohol Intake: 1.24 g/kg
  Alcohol Preference: 52 % EtOH
[1]; gavage, Day 4, 24 Hour Intake
  Alcohol Intake: 2.68 g/kg
  Alcohol Preference: 50 % EtOH
[1]; gavage, Day 5, 6 Hour Intake
  Alcohol Intake: 1.54 g/kg
  Alcohol Preference: 39 % EtOH
[1]; gavage, Day 5, 24 Hour Intake
  Alcohol Intake: 2.97 g/kg
  Alcohol Preference: 47 % EtOH
[1]; gavage, Day 6, 6 Hour Intake
  Alcohol Intake: 1.04 g/kg
  Alcohol Preference: 60 % EtOH
[1]; gavage, Day 6, 24 Hour Intake
  Alcohol Intake: 2.99 g/kg
  Alcohol Preference: 59 % EtOH
[1]; gavage, Day 7, 6 Hour Intake
  Alcohol Intake: 1.34 g/kg
  Alcohol Preference: 65 % EtOH
[1]; gavage, Day 7, 24 Hour Intake
  Alcohol Intake: 3.60 g/kg
  Alcohol Preference: 76 % EtOH
[1]; gavage, Day 8, 6 Hour Intake
  Alcohol Intake: 1.63 g/kg
  Alcohol Preference: 61 % EtOH
[1]; gavage, Day 8, 24 Hour Intake
  Alcohol Intake: 3.97 g/kg
  Alcohol Preference: 70 % EtOH
[1]; gavage, Day 9, 6 Hour Intake
  Alcohol Intake: 1.84 g/kg
  Alcohol Preference: 67 % EtOH
[1]; gavage, Day 9, 24 Hour Intake
  Alcohol Intake: 3.78 g/kg
  Alcohol Preference: 68 % EtOH
[1]; gavage, Day 10, 6 Hour Intake
  Alcohol Intake: 1.38 g/kg
  Alcohol Preference: 72 % EtOH
[1]; gavage, Day 10, 24 Hour Intake
  Alcohol Intake: 3.00 g/kg
  Alcohol Preference: 73 % EtOH
[1]; gavage, Day 11, 6 Hour Intake
  Alcohol Intake: 1.17 g/kg
  Alcohol Preference: 67 % EtOH
[1]; gavage, Day 11, 24 Hour Intake
  Alcohol Intake: 2.86 g/kg
  Alcohol Preference: 81 % EtOH
[1]; gavage, Day 12, 6 Hour Intake
  Alcohol Intake: 1.07 g/kg
  Alcohol Preference: 51 % EtOH
[1]; gavage, Day 12, 24 Hour Intake
  Alcohol Intake: 3.03 g/kg
  Alcohol Preference: 69 % EtOH
[1]; gavage, Day 13, 6 Hour Intake
  Alcohol Intake: 0.96 g/kg
  Alcohol Preference: 45 % EtOH
[1]; gavage, Day 13, 24 Hour Intake
  Alcohol Intake: 2.67 g/kg
  Alcohol Preference: 67 % EtOH
[1]; gavage, Day 14, 6 Hour Intake
  Alcohol Intake: 0.55 g/kg
  Alcohol Preference: 28 % EtOH
[1]; gavage, Day 14, 24 Hour Intake
  Alcohol Intake: 1.91 g/kg
  Alcohol Preference: 45 % EtOH
[1]; at 6 and 24 hours, over the course of 14 days
  Alcohol Intake: showed a decrease in alcohol intake
[1]; over the 14 days of administration
  Tolerance to the alcohol reducing effects: did not develop tolerance
[2]; 1 Hour Post Dosing
  % EtOH: 84%
  Alcohol: 0.39 g/kg
[2]; 3 Hours Post Dosing
  % EtOH: 75%
  Alcohol: 0.72 g/kg
[2]; 6 Hours Post Dosing
  % EtOH: 72%
  Alcohol: 1.48 g/kg
[2]; 24 Hours Post Dosing
  % EtOH: 73%
  Alcohol: 3.72 g/kg
[2]; at 1, 3, 6 and 24 hours post dosing
  Alcohol intake and preference, post-deprivation: showed a decrease in alcohol intake and preference

Reference: patent publication US20080200492A1, “METHODS FOR THE TREATMENT OF ALCOHOL ABUSE, ADDICTION AND DEPENDENCY” (priority 2006, published 2008)
